“Also recorded” adds a separate entry of the source. Like-named read-outs stand apart in the source and are kept apart here.
Legend:
[1] = molecular target: T1, urease from Canavalia ensiformis (Canavalia ensiformis, UniProt P07374); test: Urease inhibition assay (indophenol method, cell-free); assay type: biochemical; details: for effect on urease activity: at concentrations of up to 100 µM
T1 construct: purchased Sigma
Description: A reaction mixture consisting of 25 µL of enzyme solution (urease from Canavalia ensiformis, Sigma, 1U final concentration) and 5 µL of test compounds dissolved in water (10–300.0 µM final concentration) was preincubated at 37 °C for 60 min in 96-well plates. Then, 55 µL of phosphate-buffered solution with […] of urea was added to each well and incubated at 37 °C for 10 min. The urease inhibitory activity was estimated by determining ammonia production using the indophenol method. Briefly, 45 µL of phenol reagent (1% w/v phenol and 0.005% w/v sodium nitroprusside) and 70 µL of alkali reagent (0.5% w/v NaOH and 0.1% active chloride NaClO) were added to each well. The absorbance was measured after 50 min at 630 nm using a MultiskanFS microplate reader (Thermo Scientific Inc., Beverly, MA, USA). All reactions were performed in triplicate in a final volume of 200 µL. The pH was maintained at 7.3–7.5 in all assays. DMSO 5% was used as a positive control.

Candida albicans KMM 455 = test: Antimicrobial activity, inhibition of microbial growth (OD620); assay type: cell-based; details: for inhibition at 100 µM: Candida albicans
Description: (§1) The yeast-like fungi of Candida albicans KMM 455 and bacterial strains Staphylococcus aureus ATCC 21027 and Escherichia coli VKPM (B-7935) (Collection of Marine Microorganisms PIBOC FEB RAS) were cultured on solid-medium Mueller Hinton broth with agar (16.0 g/L) in a Petri dish at 37 °C for 24 h.
(§2) The assays were performed in 96-well microplates in appropriate Mueller Hinton broth. Each well contained 90 µL of bacterial or of a yeast-like fungi suspension (10^9 CFU/mL). Then, 10 µL of a compound diluted at concentrations ranging from 1.5 to 100.0 µM using a 2-fold dilution was added (DMSO concentration < 1%). Culture plates were incubated overnight at 37 °C, and the OD620 was measured using a Multiskan FS spectrophotometer (Thermo Scientific Inc., Beverly, MA, USA). The antibiotic gentamicin and antifungal agent nitrofungin were used as positive controls at 1 mg/mL; 1% DMSO in PBS served as a negative control.

[2] = tested on: Escherichia coli VKPM (B-7935); test: as above; assay type: cell-based; details: for inhibition at 100 µM: Escherichia coli, read-out: Inhibition of Microbial Growth, E. coli
Description: as §1, §2

[3] = tested on: Staphylococcus aureus ATCC 21027; test: as above; assay type: cell-based; details: for inhibition at 100 µM: Staphylococcus aureus
Description: as §1, §2

[4] = Cell viability assay (MTT), cytotoxic activity; assay type: cell-based, human; details: 24 h, MTT; for viability at 24 h, 10 µM / viability at 24 h, 100 µM: percent of control
Description: (§3) The HepG2 and H9c2 cells were cultured in DMEM medium (Biolot, St. Petersburg, Russia) containing 10% fetal bovine serum (Biolot, St. Petersburg, Russia) and 1% penicillin/streptomycin (Biolot, St. Petersburg, Russia) at 37 °C in a humidified atmosphere with 5% (v/v) CO2.
(§4) The HepG2 and H9c2 cells were seeded at concentrations of 5× 10^3 and 3×10^3 cell/well, respectively, and the experiments were started after 24 h. The compounds at concentrations up to 100 µM were added into the wells for 24 h, and the viability of the cells was measured by an MTT (3-(4,5-dimethylthiazol-2-yl)-2,5-diphenyltetrazolium bromide) assay, which was performed according to the manufacturer’s instructions (Sigma-Aldrich, Munich, Germany). All compounds were dissolved with DMSO so that the final concentration of DMSO in the cell culture was not more than 1%. Moreover, DMSO was used as a control. The absorbance of the resulting solution was measured at 570 nm with a microplate reader MultiscanFC (ThermoLabsystems Inc., Beverly, MA, USA). The results are presented as a percent of the control data and calculated IC50.

[5] = tested on: normal rat cardiomyocyte H9c2 cells; test: Cell viability assay (MTT), cytotoxic activity; assay type: cell-based; details: for decrease of H9c2 cell viability: 100 µM; for IC50: 24 h, MTT, read-out: H9c2 IC50 (cytotoxic effect)
Description: as §3, §4

[6] = tested on: S. aureus-infected H9c2 cardiomyocytes; test: Staphylococcus aureus-induced infection of H9c2 cardiomyocytes (in vitro model of infectious myocarditis, MTT); assay type: cell-based, rat; details: 1 and 10 µM
Description: The H9c2 cells were seeded at concentrations of 3 × 10^3 cell/well. After 24 h, the cell culture media was changed with an S. aureus bacterial suspension (10^2 CFU/mL) prepared in full DMEM culture media. The investigated compounds at concentrations of 1 and 10 µM were added after 1 h and the cells were incubated for 48 h. The S. aureus suspension with compounds at the same concentrations was used as a control. MTT reagent was added to all wells and formazan production was detected with the microplate reader MultiscanFC (ThermoLabsystems Inc., Beverly, MA, USA). The viability of S. aureus-infected cells was calculated as:Viability, relative units = (OD cells+Sa +comp − OD Sa+comp)/(OD cells+Sa − OD Sa)

[7] = tested on: human hepatocarcinoma HepG2 cells; test: Cell viability assay (MTT), cytotoxic activity; assay type: cell-based; details: for decrease of HepG2 cell viability: 100 µM; for IC50: 24 h, MTT, read-out: HepG2 IC50 (cytotoxic effect)
Description: as §3, §4

[8] = KMM455, compounds tested at 100 µM, read-out: Inhibition of Microbial Growth, C. albicans
[9] = ATCC21027, compounds tested at 100 µM, read-out: Inhibition of Microbial Growth, S. aureus
[10] = human, HepG2 cells (human hepatocarcinoma), read-out: HepG2 IC50 (cytotoxic effect)
[11] = human, HepG2 hepatocarcinoma cells
[12] = rat, H9c2 cells (normal rat cardiomyocytes), read-out: H9c2 IC50 (cytotoxic effect)
[13] = KMM455, read-out: Inhibition of Microbial Growth, C. albicans
[14] = ATCC21027, read-out: Inhibition of Microbial Growth, S. aureus
[15] = human, read-out: HepG2 Cell Viability
[16] = human, read-out: HepG2 IC50 (cytotoxic effect)
[17] = rat, read-out: H9c2 Cell Viability
[18] = rat, read-out: H9c2 IC50 (cytotoxic effect)

T1 sequence (P07374 whole entry, looked up): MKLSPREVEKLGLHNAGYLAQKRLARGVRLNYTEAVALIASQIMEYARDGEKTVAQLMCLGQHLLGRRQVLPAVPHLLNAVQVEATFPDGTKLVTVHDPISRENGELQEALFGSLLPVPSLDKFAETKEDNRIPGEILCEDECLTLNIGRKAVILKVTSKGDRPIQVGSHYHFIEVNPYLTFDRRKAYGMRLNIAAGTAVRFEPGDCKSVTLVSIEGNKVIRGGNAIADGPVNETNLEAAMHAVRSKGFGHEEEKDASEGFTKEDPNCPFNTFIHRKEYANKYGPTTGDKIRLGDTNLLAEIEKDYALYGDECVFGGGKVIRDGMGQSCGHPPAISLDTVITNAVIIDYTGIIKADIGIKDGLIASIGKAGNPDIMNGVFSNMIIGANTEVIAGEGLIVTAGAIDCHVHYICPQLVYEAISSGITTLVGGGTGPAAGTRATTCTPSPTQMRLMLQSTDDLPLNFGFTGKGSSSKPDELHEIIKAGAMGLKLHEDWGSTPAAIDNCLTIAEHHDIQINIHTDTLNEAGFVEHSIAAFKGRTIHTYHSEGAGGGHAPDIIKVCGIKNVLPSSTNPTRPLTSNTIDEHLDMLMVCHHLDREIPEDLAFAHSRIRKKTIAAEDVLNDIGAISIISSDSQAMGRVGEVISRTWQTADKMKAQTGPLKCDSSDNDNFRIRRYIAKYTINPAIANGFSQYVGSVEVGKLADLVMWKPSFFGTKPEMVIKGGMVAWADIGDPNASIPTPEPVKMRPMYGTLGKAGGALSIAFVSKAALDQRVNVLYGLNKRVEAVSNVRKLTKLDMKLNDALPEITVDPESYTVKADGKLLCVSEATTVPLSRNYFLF

SMILES	IC50 [1] [µM]	effect on urease activity [1]	inhibition at 100 µM (Candida albicans KMM 455; [8]) [%]	inhibition at 100 µM ([2]; compounds tested at 100 µM) [%]	inhibition at 100 µM [3, 9] [%]	IC50 at 24 h [4, 10] [µM]	viability at 24 h, 10 µM [4, 11] [%]	viability at 24 h, 100 µM [4, 11] [%]	viability at 24 h, 10 µM ([4]; rat, H9c2 cardiomyocyte cells) [%]	viability at 24 h, 100 µM ([4]; rat, H9c2 cardiomyocyte cells) [%]	IC50 at 24 h [4, 12] [µM]	decrease of H9c2 cell viability [5] [%]	effect on the viability of S. aureus-infected H9c2 cardiomyocytes [6]	decrease of HepG2 cell viability [7]	other results
COC1=CC(=O)C[C@@H](C)[C@]12Oc1c(Cl)c(O)cc(OC)c1C2=O [Compound 9, 6-O-desmethylgriseofulvin]	> 100	no effect; also recorded: did not show any effect	< 10	~23	~23	> 100	91.5 ± 6.8	84.2 ± 3.2	97.4 ± 8.1	92.9 ± 3.7	> 100				Inhibition of Microbial Growth, E. coli ([2]; compounds tested at 100 µM, 100 µM): 23.4 ± 1.8%
COC1=CC(=O)c2c(O)cc(OC)cc2[C@@]1(C)O [Compound 2, sajaroketide B]	98.5 ± 0.8		< 10	< 10	< 10	> 100	87.3 ± 4.1	76.9 ± 2.1	96 ± 1.9	79 ± 3.4	> 100	21.0	did not show any statistical effect		Inhibition of Microbial Growth, E. coli ([2]; compounds tested at 100 µM): inactive; Inhibition of Microbial Growth, S. aureus ([3]; compounds tested at 100 µM): inactive
Cc1cc(O)cc2oc3cc(O)cc(O)c3c(=O)c12 [Compound 5, norlichexanthone]	15.3 ± 2.1		< 10	27.9 ± 3.3	20.8 ± 6.5	~100	88 ± 4.9	52.6 ± 3	86.3 ± 6.3	49 ± 1.6	~100	51.0		47.4%	IC50 [7]: > 100 µM; IC50 [5]: 97.4 ± 2.2 µM
COC1=CC(=O)C[C@@H](C)[C@]12Oc1c(Cl)c(OC)cc(OC)c1C2=O [Compound 8, griseofulvin, reference compound]	10.1 ± 0.6		< 10	16.8 ± 4.5	11.5 ± 4.3	77.8 ± 1.3	81 ± 2.1	39.9 ± 0.7	89.8 ± 2.7	71.6 ± 3.7	> 100	28.4		60.1%	
Cc1cc(O)c(O)c2oc3cc(O)cc(O)c3c(=O)c12 [Compound 7, 1,3,5,6-tetrahydroxy-8-methylxanthone]	100		15.4 ± 2.1	< 10	< 10	~100	77.1 ± 1.4	57.4 ± 4.2	98 ± 0.9	52.9 ± 1.5	~100			42.6 µM	IC50 [7]: > 100 µM; IC50 [5]: > 100 µM
Cc1cc(O)cc2oc(C[C@H](C)O)cc(=O)c12 [Compound 3, (2′S)-7-hydroxy-2-(2′-hydroxypropyl)-5-methylchromone]	> 100	no effect; also recorded: did not show any effect	< 10	< 10	17.7 ± 0.3	> 100	91.7 ± 1.5	101 ± 3.9	96.4 ± 2.1	74.3 ± 3.2	> 100	25.7			
CC1=CC(=O)OCC1 [Compound 11, 5,6-dihydro-4-methyl-2H-pyran-2-one]	11.4 ± 1												did not show any statistical effect	23.4%	inhibition at 100 µM (Candida albicans KMM 455; [13]): < 10%; Inhibition of Microbial Growth, C. albicans (Candida albicans KMM 455; compounds tested at 100 µM): did not affect; inhibition at 100 µM [2]: < 10%; inhibition at 100 µM [3, 14]: < 10%; viability at 24 h, 10 µM [4, 15]: 87.5 ± 5.3%; viability at 24 h, 100 µM [4, 15]: 76.6 ± 2.4%; IC50 at 24 h [4, 16]: > 100 µM; viability at 24 h, 10 µM [4, 17]: 95.9 ± 0.6%; viability at 24 h, 100 µM [4, 17]: 89 ± 2.9%; IC50 at 24 h [4, 18]: > 100 µM
COc1cc(O)c2c(=O)c3c(C)cc(O)cc3oc2c1 [Compound 6, griseoxanthone C]	97.3 ± 1.6											36.7	did not show any statistical effect	72.9%	inhibition at 100 µM (Candida albicans KMM 455; [13]): < 10%; Inhibition of Microbial Growth, C. albicans (Candida albicans KMM 455; compounds tested at 100 µM): did not affect; inhibition at 100 µM [2]: < 10%; inhibition at 100 µM [3, 14]: < 10%; viability at 24 h, 10 µM [4, 15]: 85.7 ± 5.7%; viability at 24 h, 100 µM [4, 15]: 27.1 ± 2.4%; IC50 at 24 h [4, 16]: 64.7 ± 0.8 µM; viability at 24 h, 10 µM [4, 17]: 86 ± 4.8%; viability at 24 h, 100 µM [4, 17]: 63.3 ± 1.4%; IC50 at 24 h [4, 18]: > 100 µM
COC1=CC(=O)c2c(O)cc(O)cc2[C@@]1(C)O [Compound 1, sajaroketide A]	> 100	no effect; also recorded: very poor	< 10	25.4 ± 1	35.1 ± 0.9	> 100	108 ± 3.2	107 ± 3.9	83.6 ± 4.4	65.4 ± 4.8	> 100	34.6			
